According to patent US20260226006A1, “INDOLE COMPOUND, PREPARATION METHOD THEREFOR AND USE THEREOF” (SUZHOU MERNA THERAPEUTICS CO. LTD, priority 2023, published 2026):

Tests used:
[1] = test system: HaCaT keratinocytes; assay: Inhibition of HBEGF-induced differentiation of HaCaT keratinocytes, marker mRNA by RT-PCR (Example 21); format: cell-based, human; details: 2.5 ng/mL human recombinant HBEGF protein + test compound, 24 hours
Protocol: Human HaCaT keratinocytes were cultured in a DMEM culture medium containing 10% fetal bovine serum, 100 U/mL penicillin, and 100 µg/mL streptomycin. The cells were seeded into a 96-well plate at a density of […] and placed in an incubator containing 5% carbon dioxide for culture at 37° C. for 24 hours. An equal volume of DMSO was added into control well 1, a 2.5 ng/mL human recombinant HBEGF protein (Abcam, ab205523) was added into control well 2, and a 2.5 ng/mL human recombinant HBEGF protein and corresponding concentrations of test compounds were added into sample wells. The cells were continuously cultured for 24 hours, washed with PBS, and then collected by high-speed centrifugation. Total RNA was extracted using a Trizol reagent (Sigma Aldrich). 1 μg of RNA was reverse-transcribed into cDNA using a cDNA reverse transcription kit (Transgene Biotech, AT311-03). 1.25 μL of a primer (with a primer sequence shown in Table 2), 10 μL of an iTag Universal SYBR Green supermix (Bio-Rad, 172-S125), and an appropriate amount of DEPC ultrapure water were added to formulate 20 μL of a reaction solution to perform an RT-PCR reaction. Upon completion of the reaction, the reaction solution was subjected to agarose gel electrophoresis to determine the mRNA expression amounts of keratinocyte differentiation markers KRT1, KRT10, Loricrin, and Involucrin.

[2] = test system: THP-1 cells; assay: m6A methylation level of THP-1 cells by LC-MS (Example 19); format: cell-based; details: 24 hours
Protocol: 1*10^8 THP-1 cells were seeded in culture dishes, into which 400 nM compound 1, 4 nM and 400 nM compounds 2b, 5a, and 8b, 4 nM and 4 μM nicotinamide, and 5 μM m6A methylase inhibitor UZH2 were added, respectively. The cells were cultured in an incubator containing 5% CO2 at 37° C. for 24 hours. After culture media were discarded, the cells were washed with PBS and centrifuged to discard the supernatant. 400 μL of an RLT cell lysis buffer was added, and the cells were stored at −80° C. A portion of samples were selected, into which 400 μL of 70% ethanol was added and evenly stirred. 700 μL of a sample was transferred to an RNeasy centrifugation column and centrifuged for 15 seconds (8,000 g, 25° C.). Then, 700 μL of an RW1 buffer solution was added and centrifuged for 15 seconds (8,000 g, 25° C.), followed by the addition of 500 μL of an RPE buffer solution and centrifugation for 16 seconds (8,000 g, 25° C.). The above steps were repeated twice, followed by centrifugation for 2 minutes to completely remove the eluent. 30 μL of nuclease-free water was added to a chromatographic column, and the cells were incubated for 5 minutes and then centrifuged for 2 minutes (12,000 g, 25° C.). The steps were repeated 3 times. 2 μL of an RNA sample was selected and dissolved in 98 μL of a 10 mM Tris buffer solution, and the absorbance at 260 nm was measured using a Nanodrop to determine the RNA concentration.
50 μg of total RNA was selected and dissolved in 100 μL of nuclease-free water. Oligo (dT) magnetic beads were resuspended, 50 μL of the magnetic beads were transferred to a 1.5 mL test tube, 500 μL of a binding buffer solution was added, the mixture was allowed to stand, and the supernatant was removed. 100 μL of an RNA sample was added to 200 μL of a magnetic bead suspension for mixing, the mixture was stirred and incubated in a Thermomixer at 25° C. for 5 minutes, the supernatant was discarded, and then 200 μL of a washing buffer solution was added. The steps were repeated 2 times, and then centrifugation was performed for 10 seconds (2,000 g, 25° C.). 50 μL of an elution buffer solution was added and evenly mixed, the mixture was heated to 75° C., the supernatant was transferred to a new 1.5 mL test tube and purified using an RNA Clean & Concentrator kit, and the RNA concentration was determined.
20 μL (approximately 200 ng) of an mRNA sample and 20 μL of a Nuclease P1 digestion premix (including 0.5 μL of 2 unit/μL Nuclease P1, 0.4 μL of 5 M NaCl, 2 μL of 0.1 M ZnCl2, and 17.1 μL of PCR-grade water) were added into each test tube, and the mixture was stirred and incubated in a Thermomixer at 37° C. for 2 hours. 2 μL of a 2 M NH4HCO3 solution and 1 unit of alkaline phosphatase were added, and the mixture was stirred and incubated in a Thermomixer at 37° C. for 2 hours. 1 μL of a 1.2 M HCl neutralization solution was added, and centrifugation was performed for 30 minutes (16,000 g, 4° C.). 20 μL of the supernatant was collected, an m6A methylation fragment was analyzed by LC-MS, and the m6A inhibition rate was calculated.
m6A inhibition rate (%)=(measured ion peak area−blank control)/(positive ion peak area−blank control)*100.

Structure (SMILES) | mRNA expression amounts of HaCaT differentiation markers KRT1, KRT10, Loricrin, and Involucrin [1] | m6A methylation level of mRNA of the cells ([2]; 4 nM and 400 nM) | m6A inhibition activity ([2]; 400 nM) | m6A methylation level of mRNA of the cells ([2]; 4 nM and 4 μM)
NC(=O)C1CCCc2c1[nH]c1ccc(Cl)cc21 (stereo not drawn) [Compound 2, 6-chloro-2,3,4,9-tetrahydro-1H-carbazole-1-carboxamide] | significantly inhibited | – | – | –
NC(=O)[C@H]1CCCc2c1[nH]c1ccc(Cl)cc21 [Compound 2b, (S)-6-chloro-2,3,4,9-tetrahydro-1H-carbazole-1-carboxamide] | significantly inhibited | significantly inhibit | comparable to that of the m6A methylase inhibitor UZH2 at a concentration of 5 μM | –
NC(=O)C1c2[nH]c3ccc(Cl)cc3c2C2CCC1C2 [Compound 5a, (S)-2-chloro-5,6,7,8,9,10-hexahydro-7,10-methanocyclohepta[b]indole-6-carboxamide] | significantly inhibited | significantly inhibit | – | –
CN1CC[C@H](C(N)=O)c2[nH]c3ccc(Cl)cc3c21 [Compound 8b, (S)-8-chloro-1-methyl-2,3,4,5-tetrahydropyrido[3,2-b]indole-4-carboxamide] | significantly inhibited | significantly inhibit | – | –
NC(=O)c1cccnc1 [Nicotinamide, nicotinamide] | – | – | – | no inhibitory effect
